Test results published in patent US20080114047A1 (priority 2003, published 2008).
Values joined by “and” are separate entries in the source; they are usually repeats but may differ in a detail not shown here. Identical values can stand only once. Like-named read-outs stand apart in the source and are kept apart here.

How the values were obtained:
Candida albicans = experiment: Anti-fungal data: Candida albicans; format: cell-based; conditions: for MFC / MIC80: strain A39; for MIC: strain A39, read-out: Candida albicans (A39) MIC100
[1] = test system: Trypanosoma brucei rhodesiense; experiment: Anti-protozoan data: T.b.r. IC50; format: cell-based; conditions: read-out: T.b.r. IC50
Plasmodium falciparum = experiment: Anti-protozoan data: P. falcip. IC50; format: cell-based; conditions: read-out: P. falcip. IC50
[2] = test system: L. donovani axenic amastigotes; experiment: In vitro anti-leishmania activity (IC50 vs. L. donovani axenic amastigotes); format: cell-based; conditions: Leishmania donovani
Aspergillus fumigatus = experiment: Anti-fungal data: Aspergillus fumigatus; format: cell-based; conditions: for MIC80 / MFC: strain DUMC 168.95; for MIC: strain DUMC 168.95, read-out: Aspergillus. Fumigatus (DUMC 168.95) MIC100
Trypanosoma cruzi = experiment: Anti-protozoan data: T. cruzi IC50; format: cell-based; conditions: read-out: T. cruzi IC50
[3] = test system: Mycobacterium tuberculosis; experiment: Compounds tested against Mycobacterium tuberculosis (MIC90); format: cell-based
DNA = DNA binding ΔTm
Cryptococcus neoformans = experiment: Anti-fungal data: Cryptococcus neoformans; format: cell-based
[4] = Tables VI(a), VI(c), read-out: Leishmania donovani IC50
[5] = axenic amastigotes, Tables I-V, read-out: IC50 vs. L. donovani
[6] = Table VII(b), read-out: M. tb MIC90

SMILES	MIC80 (Candida albicans) [µg/mL]	MIC (Candida albicans) [µg/mL]	IC50 (in vitro) [µM]	IC50 ([1]; Tables VI(a), VI(c)) [µM]	melting point [°C]	IC50 (Plasmodium falciparum; Tables VI(a), VI(c)) [µM]	IC50 [2, 4] [µM]	MIC80 (Aspergillus fumigatus) [µg/mL]	MIC (Aspergillus fumigatus) [µg/mL]	IC50 (Trypanosoma cruzi; Tables VI(a), VI(c)) [µM]	MIC90 ([3]; read-out: M. tb. MIC90)	IC50 [2, 5] [µM]	other results
CC(C)NC(=N)c1ccc(OCCCOc2ccc(-c3cc4cc(C(=N)NC(C)C)ccc4o3)cc2)cc1.Cl.Cl [Compound 45, 2-(4-(3-(4-(N-Isopropylcarbamimidoyl)phenoxy)propoxy)phenyl)-N-isopropylbenzofuran-5-carboxamidine dihydrochloride]	10	10	45.6	0.0409	301 to 302	0.0418	1.56 ± 0.58	100	> 100	70.4	1.12 µg/mL and 1.86 µM		MFC (Candida albicans): 10 µg/mL
Cl.Cl.c1cc(C2=NCCN2)ccc1OCCCOc1ccc(-c2cc3cc(C4=NCCN4)ccc3o2)cc1 [Compound 46, 2-(2-(4-(3-(4-(4,5-Dihydro-1H-imidazol-2-yl)phenoxy)propoxy)phenyl)benzofuran-5-yl)-4,5-dihydro-1H-imidazole dihydrochloride]	10	10	10.3	0.0606	262 to 263	0.0432		10	> 100	7.6			MFC (Candida albicans): 10 µg/mL
Cl.Cl.c1cc(C2=NCCN2)ccc1OCCCCOc1ccc(-c2cc3cc(C4=NCCN4)ccc3o2)cc1 [Compound 49, 2-(2-(4-(4-(4-(4,5-Dihydro-1H-imidazol-2-yl)phenoxy)butoxy)phenyl)benzofuran-5-yl) -4,5-dihydro-1H-imidazole dihydrochloride]	100	> 100	2.88	0.374	291 to 293	0.0641	9.21 ± 2.25	100	> 100	4.51		9.21 ± 2.25	DNA binding Δ Tm (DNA; Tables VI(a), VI(c)): 18.8
Cl.Cl.c1cc(C2=NCCN2)ccc1OCCCCCOc1ccc(-c2cc3cc(C4=NCCN4)ccc3o2)cc1 [Compound 52, 2-(2-(4-(5-(4-(4,5-Dihydro-1H-imidazol-2-yl)phenoxy)pentyloxy)phenyl)benzofuran-5-yl)-4,5-dihydro-1H-imidazole dihydrochloride]	10	10	0.87	0.338	258 to 261	0.06	39.4 ± 7.35	10	100	2.27	10.1 µg/mL and 16.9 µM		MFC (Candida albicans): 10 µg/mL; MFC (Aspergillus fumigatus): > 100 µg/mL
CC(C)NC(=N)c1ccc(OCCCCCCOc2ccc(-c3cc4cc(C(=N)NC(C)C)ccc4o3)cc2)cc1.Cl.Cl [Compound 54, 2-(4-(6-(4-(N-Isopropylcarbamimidoyl)phenoxy)hexyloxy)phenyl)-N-isopropylbenzofuran-5-carboxamidine dihydrochloride]	> 100	> 100	0.85	0.211	288 to 291	0.0634	5.4 ± 1.46	> 100	> 100	1.21	65.8 µg/mL and 102 µM		
Cl.Cl.N=C(N)c1ccc(OCCCOc2cccc(-c3cc4ccc(C(=N)N)cc4o3)c2)cc1 [Compound 56, 2-(3-(3-(4-Carbamimidoylphenoxy)propoxy)phenyl)benzofuran-6-carboxamidine dihydrochloride]			19.8	0.327	196 to 200	0.084	11.2 ± 0.28			11.1	1.02 µg/mL and 1.93 µM	11.2 ± 0.28	
Cl.Cl.c1cc(OCCCCCCOc2ccc(C3=NCCN3)cc2)cc(-c2cc3ccc(C4=NCCN4)cc3o2)c1 [Compound 67, 2-(2-(3-(6-(4-(4,5-Dihydro-1H-imidazol-2-yl)phenoxy)hexyloxy)phenyl)benzofuran-6-yl)-4,5-dihydro-1H-imidazole dihydrochloride]	1.56	1.56	1.79	0.681	182 to 186	0.0412	43.5 ± 0.69	12.5	12.5	3.67	18 µg/mL and 29.4 µM	43.5 ± 0.69	MFC (Candida albicans): 1.56 µg/mL; MFC (Cryptococcus neoformans; strain H99): 1.56 µg/mL; MIC80 (Cryptococcus neoformans; strain H99): 0.781 µg/mL; MIC (Cryptococcus neoformans; strain H99, read-out: Cryptococcus neoformans (H99) MIC100): 1.56 µg/mL; MFC (Aspergillus fumigatus): > 100 µg/mL
Cl.Cl.c1cc(C2=NCCN2)ccc1OCCCCCCOc1ccc(-c2cc3ccc(C4=NCCN4)cc3o2)cc1 [Compound 79, 2-(2-(4-(6-(4-(4,5-Dihydro-1H-imidazol-2-yl)phenoxy)hexyloxy)phenyl)benzofuran-6-yl)-4,5-dihydro-1H-imidazole dihydrochloride]			3.44	0.224	265 to 269	0.0316	15.3 ± 1.72			2.15	2.14 µg/mL and 3.51 µM	15.3 ± 1.72	
N=C(N)c1cccc(-c2cc3cc(C(=N)N)ccc3o2)c1 [Compound 166, 2-(3-carbamimidoylphenyl)benzofuran-5-carboxamidine]			21.2									5.82 ± 0.06	IC50 [1]: 0.0241 µM; IC50 (Plasmodium falciparum): 0.0191 µM; IC50 ([2]; read-out: L. Donovani IC50): 5.82 ± 0.06 µM; IC50 (Trypanosoma cruzi): 23.4 µM; MIC90 [3, 6]: 11.9 µg/mL and 31.6 µM
CC(C)NC(=N)c1cccc(-c2cc3cc(C(=N)NC(C)C)ccc3o2)c1 [Compound 167, 2-(3-(N-isopropylcarbamimidoyl)phenyl)-N-isopropylbenzofuran-5-carboxamidine]			> 199									13.4 ± 0.64	IC50 [1]: 0.473 µM; IC50 (Plasmodium falciparum): 0.331 µM; IC50 ([2]; read-out: L. Donovani IC50): 13.4 ± 0.64 µM; IC50 (Trypanosoma cruzi): > 199 µM; MIC90 [3, 6]: > 57.8 µg/mL and > 128 µM
c1cc(C2=NCCN2)cc(-c2cc3cc(C4=NCCN4)ccc3o2)c1 [Compound 168, 2-(3-(5-(4,5-dihydro-1H-imidazol-2-yl)benzofuran-2-yl)phenyl)-4,5-dihydro-1H-imidazole]			33.9									23.7 ± 0.17	IC50 [1]: 0.0776 µM; IC50 (Plasmodium falciparum): 0.0758 µM; IC50 ([2]; read-out: L. Donovani IC50): 23.7 ± 0.17 µM; IC50 (Trypanosoma cruzi): 39.6 µM; MIC90 [3, 6]: 10.8 µg/mL and 25.7 µM
N=C(NO)c1ccc(-c2cc3cc(C(=N)NO)ccc3o2)cc1 [Compound 178, 2-(4-(N-Hydroxycarbamimidoyl)phenyl)-N-hydroxybenzofuran-5-carboxamidine]			> 235										IC50 [1]: 23.6 µM; IC50 (Plasmodium falciparum): 0.783 µM; IC50 ([2]; read-out: L. Donovani IC50): > 100 µM; DNA binding Δ Tm (DNA): 4.50; IC50 (Trypanosoma cruzi): > 235 µM; MIC90 [3, 6]: > 128 µM
N=C(NO)c1ccc(OCCCOc2ccc(-c3cc4cc(C(=N)NO)ccc4o3)cc2)cc1 [Compound 182, 2-(4-(3-(4-(N-Hydroxycarbamimidoyl)phenoxy)propoxy)phenyl)-N-hydroxybenzofuran-5-carboxamidine]			2.64	1.34		1.4	5.02 ± 0.93			1.7	0.65 µg/mL and 1.2 µM		DNA binding Δ Tm (DNA; Tables VI(a), VI(c)): 1.10
CONC(=N)c1ccc2oc(CCCCCc3cc4cc(C(=N)NOC)ccc4o3)cc2c1 [Compound 193, 2-(5-(5-(N-Methoxycarbamimidoyl)benzofuran-2-yl)pentyl)-N-methoxybenzofuran-5-carboxamidine]			35.6	> 18.6		> 1.86	> 100			19.1	4.25 µg/mL and 7.88 µM		
